Assay [1] deals with T1, human sodium-glucose cotransporter 2 (SGLT2) (Homo sapiens, UniProt P31639).
T1 construct: expressed in transfected cells; host or cells: NIH3T3 (mouse fibroblast) cells expressing hSGLT2
T1 sequence (P31639 1-672): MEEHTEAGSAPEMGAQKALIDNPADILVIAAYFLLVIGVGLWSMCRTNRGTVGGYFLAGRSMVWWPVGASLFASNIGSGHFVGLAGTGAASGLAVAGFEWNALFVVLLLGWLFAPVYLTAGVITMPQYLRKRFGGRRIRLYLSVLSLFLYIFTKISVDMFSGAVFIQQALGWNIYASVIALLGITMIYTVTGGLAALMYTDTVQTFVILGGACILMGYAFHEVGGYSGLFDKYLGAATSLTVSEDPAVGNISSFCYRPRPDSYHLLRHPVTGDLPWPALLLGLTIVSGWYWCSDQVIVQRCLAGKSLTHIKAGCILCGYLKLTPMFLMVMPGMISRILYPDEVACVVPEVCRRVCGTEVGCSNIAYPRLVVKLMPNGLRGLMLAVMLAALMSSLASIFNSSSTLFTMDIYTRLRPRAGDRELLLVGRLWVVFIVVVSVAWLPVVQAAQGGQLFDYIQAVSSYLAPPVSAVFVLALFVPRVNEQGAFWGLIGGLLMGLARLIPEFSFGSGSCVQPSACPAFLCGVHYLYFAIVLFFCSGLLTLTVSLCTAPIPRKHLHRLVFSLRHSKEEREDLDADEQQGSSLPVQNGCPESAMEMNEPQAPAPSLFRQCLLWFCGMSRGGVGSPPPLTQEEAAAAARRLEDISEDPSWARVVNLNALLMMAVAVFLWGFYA
Nature of the assay: In vitro SGLT2 inhibition, methyl-α-D-[U-14C]glucopyranoside uptake in NIH3T3-hSGLT2 cells. In kind it is cell-based. To be noted: for Selectivity: IC50 SGLT1/IC50 SGLT2; for inhibition at 0.01 µM: SGLT2, 10 nM, read-out: % Inhibition rate ± SD 10 nM; for inhibition at 0.1 µM: SGLT2, 100 nM, read-out: % Inhibition rate ± SD 100 nM; for IC50: read-out: IC50 ± SD SGLT2. The procedure: Inhibition of the compounds of formula I against human sodium-glucose cotransporter 2 (SGLT2) was determined experimentally and the experimental procedures were carried out as reference^1.
Methyl-α-D-[U-^14C] glucopyranoside (Perkin Elmer) Dimethylsulfoxide (Genebase, Prod No: 0231)
(1) Primary screening of hSGLT2 are conducted with two concentrations, 100 nM and 10 nM;
SGLT2 transports D-glucose at 1:1 sodium-glucose ratio, glucose is replaced by the non-metabolic and isotope labeled methyl-aD-[U-^14C] glucopyranoside and methyl-aD-glucopyranoside, and the amount of isotope transferred into the cells was determined.
1) 0.2% gelatin in a 96-well plate was put in a 37° C. incubator for further use;
2) NIH3T3-hSGLT2 cells were injected into 96-well plates, 40000/well, and 100 μL culture medium per well:
3) the fluid was changed in the next day, and sodium butyrate was added into medium at a final concentration of 2 mM;
4) wash the cells with 100 μL of KRH—Na^+ for 3 times and incubate cells with 50 μL for 30 minutes. Cells were changed to 50 μL of compound in KRH—Na^+, uptake buffer (KRH—Na^+ and methyl-α-D-[U-^14C]glucopyranoside and ⅙ mM methyl-α-D-glucopyranoside at 10 μL per well) was added; KRH-acetylcholine solution was used as background control instead of KRH-Na^+
5) washed with 100 μL PBS for 3 times, dried, 50 μL lysate and 150 μL scintillation fluid were added, the membrane was covered and flattened, shaken on a shaker to mix thoroughly, centrifuged at 1500 rpm at 4° C. for 3 min, taken out and read;
6) the results were analyses.
The inhibition rate (% Inhibiton) of each sample at each concentration was calculated by dividing the value of the compound well value minus the background value by the value of the DMSO control well value minus the background value.
IC50 is calculated as follows: […]
The y value is the activity or inhibition percent, the x value is the concentration of the corresponding compound, top (the maximum y value of the curve), bottom (the minimum y value of the curve).

For the next assay, the target named is T2, hSGLT1 (Homo sapiens, UniProt P13866).
T2 sequence (P13866 1-664): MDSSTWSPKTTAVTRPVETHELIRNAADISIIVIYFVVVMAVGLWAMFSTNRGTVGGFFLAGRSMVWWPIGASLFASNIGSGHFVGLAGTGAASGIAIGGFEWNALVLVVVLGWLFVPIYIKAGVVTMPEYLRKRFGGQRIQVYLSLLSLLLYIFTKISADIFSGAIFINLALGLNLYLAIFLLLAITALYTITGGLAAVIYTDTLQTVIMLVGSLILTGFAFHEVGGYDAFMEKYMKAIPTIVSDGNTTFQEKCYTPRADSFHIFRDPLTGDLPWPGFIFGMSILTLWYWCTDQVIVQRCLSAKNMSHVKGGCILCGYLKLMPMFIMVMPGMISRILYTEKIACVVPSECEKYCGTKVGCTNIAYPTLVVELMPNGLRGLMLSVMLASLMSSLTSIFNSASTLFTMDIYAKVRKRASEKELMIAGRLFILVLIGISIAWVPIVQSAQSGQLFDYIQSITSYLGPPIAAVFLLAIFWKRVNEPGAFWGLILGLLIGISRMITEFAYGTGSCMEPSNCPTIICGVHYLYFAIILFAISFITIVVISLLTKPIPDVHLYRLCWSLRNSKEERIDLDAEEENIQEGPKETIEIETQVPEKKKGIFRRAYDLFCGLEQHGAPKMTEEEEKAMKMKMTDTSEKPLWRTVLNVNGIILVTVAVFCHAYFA
Nature of the assay: In vitro SGLT1 inhibition (hSGLT1 IC50 test). In kind it is cell-based. To be noted: read-out: IC50 ± SD SGLT1.

A further assay concerns SD rats. Put plainly: Acute single administration, urinary glucose changes in SD rats. Format: in vivo, rat. The arrangement: Urine glucose concentration / The total amount of glucose excreted: unit not given here. To be noted: 1 mg/kg oral, after 24 h. The procedure:
(1) Acutely Administering Compound to Observed the Urinary Glucose Changes in SD Rats
Thirty-eight male normal SD rats were selected and randomly divided into 5 groups according to body weight and blood glucose, 6-8 in each group. […] After oral gavage, the rats were placed in rats metabolic cages, and urine was collected after 24 h, and the urine volume was recorded, the urine sugar concentration was determined, and urinary sugar content was calculated according to the following formula. Urine content=urinary sugar concentration×urine volume
Glucose levels in urine are measured by the glucose assay kit.
Data were expressed as mean±standard deviation (x±s), and Student's t test was used for statistical analysis of the data, p<0.05 was considered statistically significant.

For a further assay, the system named is db/db mice. Nature of the assay: Chronic administration, random blood glucose in db/db mice. In kind it is in vivo, mouse. The note with it: for random blood glucose Pre: before administration; for Hypoglycemic rate % week 1 / Hypoglycemic rate % week 2 / Hypoglycemic rate % week 3 / Hypoglycemic rate % week 4: random blood glucose. The procedure: Oral gavage administrated, daily dose volume was 10 mL/kg, administered once daily. Administration time was 9: 00-10:00 daily, and the administration period was 5 weeks.
The random blood glucose of mice in the normal control group, model control group, test substance administration group and positive control group were determined on the 7th, 14th, 21st, 28th day (9: 00-10:00) every week after the first administration, and food was removed and after 6 hours of starvation, the fasting blood glucose in each group was measured. Free drinking during the hunger process. The rate of decrease of blood glucose was calculated according to the following formula: Average hypoglycemic rate %=(Blood glucose of model control group−Blood glucose of administration group)/Model control group×100%

Molecules are shown by their SMILES.

A word on the inhibition: it is the relative decrease from the control value, in per cent. As usually defined, the IC50 is the concentration that inhibits the measured activity by half. With `C[C@H]1O[C@]2(OCc3cc(Cl)c(Cc4cc5ccccc5s4)cc32)[C@H](O)[C@@H](O)[C@@H]1O` [Example A35, (1S,3′R,4′S,5′S,6′R)-6′-methyl-6-(benzo[b]thiophene-2-methyl)-5-chloro-3′,4′,5′,6′-tetrahydro-3H-spiro[isobenzofuran-1,2′-pyran]-3′,4′,5′-triol], in assay [1], the Selectivity was 81, the inhibition at 0.01 µM was 22.4 ± 7.5%, the inhibition at 0.1 µM turned out to be 95.7 ± 2% and the IC50 was determined as 24 ± 2.4 nM. Moreover, the 50% inhibitory concentration (IC50) on hSGLT1 was 1950 ± 130 nM.

As to `CC(O)c1ccc(Cc2cc3c(cc2Cl)CO[C@]32O[C@H](C)[C@@H](O)[C@H](O)[C@H]2O)s1` (stereo partly drawn) [Example A118, (1S,3′R,4′S,5′S,6′R)-5-chloro-6-((5-(1-hydroxyethyl)thiophene-2-yl)methyl)-6′-methyl-3′,4′,5′,6′-tetrahydro-3H-spiro[isobenzofuran-1,2′-pyran]-3′,4′,5′-triol], in assay [1], the Selectivity is on record as 166, the inhibition at 0.01 µM amounted to 22.1 ± 3%, the inhibition at 0.1 µM was found to be 91.8 ± 3.5% and the IC50 is 43.4 ± 12.9 nM. For the same compound, at hSGLT1, the half-maximal inhibitory concentration (IC50) amounted to 7200 ± 600 nM.

`CCOc1ccc(Cc2cc3c(cc2Cl)CO[C@]32O[C@H](C)[C@@H](O)[C@H](O)[C@H]2O)cc1` [Example A26, (1S,3′R,4′S,5′S,6′R)-6′-methyl-6-(4-ethoxybenzyl)-5-chloro-3′,4′,5′,6′-tetrahydro-3H-spiro[isobenzofuran-1,2′-pyran]-3′,4′,5′-triol]: in assay [1], the Selectivity turned out to be 58, the inhibition at 0.01 µM was 51.5 ± 10.7%, the inhibition at 0.1 µM was 90.5 ± 4.1% and the IC50 came out at 15.7 ± 2.1 nM. In addition, the IC50 at hSGLT1 worked out at 920 ± 90 nM.

Regarding `COCCc1ccc(Cc2cc3c(cc2Cl)CO[C@]32O[C@H](C)[C@@H](O)[C@H](O)[C@H]2O)s1` [Example A114, (1S,3′R,4′S,5′S,6′R)-5-chloro-6-((5-(2-methoxyethyl)thiophene-2-yl)methyl)-6′-methyl-3-3′,4′,5′,6′-tetrahydro-3H-spiro[isobenzofuran-1,2′-pyran]-3′,4′,5′-triol], in assay [1], the Selectivity worked out at 83, the inhibition at 0.01 µM is 18.3 ± 2.2%, the inhibition at 0.1 µM turned out to be 71.4 ± 2.8% and the half-maximal inhibitory concentration (IC50) was found to be 43.5 ± 11.3 nM. Moreover, the IC50 at hSGLT1 was found to be 3600 ± 260 nM.

Regarding `CCc1ccc(Cc2cc3c(cc2Cl)CO[C@]32O[C@H](C)[C@@H](O)[C@H](O)[C@H]2O)cc1` [Example A22, (1S,3′R,4′S,5′S,6′R)-6′-methyl-6-(4-ethylbenzyl)-5-chloro-3′,4′,5′,6′-tetrahydro-3H-spiro[isobenzofuran-1,2′-pyran]-3′,4′,5′-triol], in assay [1], the Selectivity was determined as 13, the inhibition at 0.01 µM was determined as 25 ± 3.1%, the inhibition at 0.1 µM amounted to 79.8 ± 8.5% and the IC50 turned out to be 29.7 ± 18.4 nM. The IC50 at hSGLT1 came out at 410 ± 50 nM.

On to `C[C@H]1O[C@]2(OCc3cc(Cl)c(Cc4ccc(CCO)s4)cc32)[C@H](O)[C@@H](O)[C@@H]1O` [Example A119, (1S,3′R,4′S,5′S,6′R)-5-chloro-6-((5-(2-hydroxyethyl)thiophene-2-yl)methyl)-6′-methyl-3′,4′,5′,6′-tetrahydro-3H-spiro[isobenzofuran-1,2′-pyran]-3′,4′,5′-triol], for which, in assay [1], the Selectivity was 167, the inhibition at 0.01 µM was 22 ± 3.1%, the inhibition at 0.1 µM was found to be 80 ± 2.7% and the half-maximal inhibitory concentration (IC50) was 3.6 ± 0.8 nM. At hSGLT1, the 50% inhibitory concentration (IC50) was 600 ± 80 nM.

With `CCOc1ccc(Cc2cc([C@@H]3O[C@H](CO)[C@@H](O)[C@H](O)[C@H]3O)ccc2Cl)cc1` [dapagliflozin, reference compound], in assay [1], the inhibition at 0.01 µM was 59.6 ± 11.3% and the inhibition at 0.1 µM was 103 ± 2.8%. In the assay with SD rats (Table 3), the “The total amount of glucose excreted” value came to 1860.61 ± 575.28 and the Urine glucose concentration came out at 251.92 ± 52.98. In the assay with SD rats (Table 3, in mL), the Urine volume was determined as 40.75 ± 8.60. Besides, in the assay on SD rats (Table 4), the “The total amount of glucose excreted” value was found to be 1822.21 ± 112.97 and the Urine glucose concentration amounted to 382.41 ± 35.64. This compound registered a Urine volume in the assay with SD rats (Table 4, in mL) of 26.67 ± 3.01. For the same compound, in the assay with db/db mice (1 mg/kg once daily oral), the “random blood glucose week 1” value was determined as 14.9 ± 0.9 mmol/L, the “random blood glucose week 2” value turned out to be 14.9 ± 1.1 mmol/L, the “random blood glucose week 3” value stood at 14.9 ± 1.0 mmol/L and the “random blood glucose week 4” value came to 14.4 ± 1.1 mmol/L. In addition, in the assay on db/db mice (1 mg/kg once daily oral), the “random blood glucose Pre” value is 19.3 ± 1.2 mmol/L, the “Hypoglycemic rate % week 1” value is on record as 24.0%, the “Hypoglycemic rate % week 2” value is 23.6% and the “Hypoglycemic rate % week 3” value is 26.4%. The “Hypoglycemic rate % week 4” value in the assay with db/db mice (1 mg/kg once daily oral) was 30.5%. For the same compound, in the assay with db/db mice (3 mg/kg once daily oral), the “random blood glucose week 1” value is on record as 13.4 ± 0.8 mmol/L, the “random blood glucose week 2” value came out at 14.1 ± 0.8 mmol/L, the “random blood glucose week 3” value came to 15.2 ± 1.2 mmol/L and the “random blood glucose week 4” value came out at 11.7 ± 1.0 mmol/L. Also, in the assay with db/db mice (3 mg/kg once daily oral), the “random blood glucose Pre” value is 17.5 ± 1.2 mmol/L, the “Hypoglycemic rate % week 1” value is 32.0%, the “Hypoglycemic rate % week 2” value came out at 27.7% and the “Hypoglycemic rate % week 3” value came out at 25.4%. Moreover, the “Hypoglycemic rate % week 4” value in the assay on db/db mice (3 mg/kg once daily oral) is on record as 43.8%.
